For the assay, the target named is T1, recombinant human mGluR2 (Homo sapiens, UniProt Q14416).
T1 construct: expressed in transfected cells
In words: FLIPR Ca2+ mobilization assay, potentiation of glutamate response. The assay is classed as cell-based. The conditions noted are these: CHO dhfr- cells expressing human mGluR2 and Gα16, EC20 glutamate (900 nM). On the procedure: Potencies are determined as follows. The compounds of the present invention may be tested in a fluorescence laser imaging plate reader (FLIPR) based assay. This assay is a common functional assay to monitor Ca^2+ mobilization in whole cells expressing recombinant receptor coupled with a promiscuous G-protein. CHO dhfr-cells stably expressing recombinant human mGluR2 and Gα16 loaded with Fluo-4 AM (Invitrogen, Carlsbad Calif.) are treated with varying concentrations of compounds and the Ca^2+ response is monitored on a FLIPR384 (Molecular Devices, Sunnydale Calif.) for agonist activity. The potentiation response is monitored after a subsequent addition of an EC20 concentration of glutamate (900 nM). The maximum calcium response at each concentration of compound for agonism or potentiation are plotted as dose responses curves fitted with a four parameters logistic equation giving EC50 and Hill coefficient using the iterative non linear curve fitting software program.
Such results are indicative of the intrinsic activity of the compounds in use as potentiators of mGluR2 receptor activity.
Background: A change in cytosolic calcium serves as a functional read-out for many receptors and channels.

Molecules are shown by their SMILES.

This note sets out measurements from patent US8785482B2, “Cyclohexene benzotriazole derivatives” (Merck Sharp & Dohme Corp., priority 2011, dated 2014).

T1 sequence (Q14416 19-872): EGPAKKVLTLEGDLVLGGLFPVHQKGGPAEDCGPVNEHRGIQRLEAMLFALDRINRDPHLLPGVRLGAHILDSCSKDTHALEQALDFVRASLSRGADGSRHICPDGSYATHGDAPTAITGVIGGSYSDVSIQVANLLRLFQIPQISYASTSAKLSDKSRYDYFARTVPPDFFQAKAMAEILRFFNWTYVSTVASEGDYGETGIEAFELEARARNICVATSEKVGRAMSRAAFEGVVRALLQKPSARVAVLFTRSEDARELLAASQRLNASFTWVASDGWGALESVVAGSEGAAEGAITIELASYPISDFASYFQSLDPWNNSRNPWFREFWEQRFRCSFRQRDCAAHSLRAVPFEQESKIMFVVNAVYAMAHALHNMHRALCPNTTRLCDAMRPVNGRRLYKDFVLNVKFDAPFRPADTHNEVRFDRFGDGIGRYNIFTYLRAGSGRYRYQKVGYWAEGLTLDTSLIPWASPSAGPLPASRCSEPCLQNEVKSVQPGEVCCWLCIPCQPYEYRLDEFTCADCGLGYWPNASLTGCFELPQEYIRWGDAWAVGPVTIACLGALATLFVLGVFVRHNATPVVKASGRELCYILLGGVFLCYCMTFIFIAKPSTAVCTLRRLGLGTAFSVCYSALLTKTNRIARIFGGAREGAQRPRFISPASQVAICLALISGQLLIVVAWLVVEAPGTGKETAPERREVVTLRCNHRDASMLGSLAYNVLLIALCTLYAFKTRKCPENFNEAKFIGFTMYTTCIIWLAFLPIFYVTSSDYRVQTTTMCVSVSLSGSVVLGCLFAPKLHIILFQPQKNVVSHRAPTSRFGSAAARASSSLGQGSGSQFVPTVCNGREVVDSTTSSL

As usually defined, the EC50 is the concentration needed to bring the measured effect to its halfway point. `OC1CC=C(c2ccc3c(nnn3CC3CC3)c2Cl)CC1` (centres unmarked) [Example 5, 4-[4-chloro-1-(cyclopropylmethyl)-1H-benzotriazol-5-yl]cyclohex-3-en-1-ol]: the half-maximal effective concentration (EC50) amounted to 408 nM. Next, `CN1C(=O)CN(CC2CC=C(c3ccc4c(nnn4CC4CC4)c3Cl)CC2)C1=O` (centres unmarked) [Example 3, 1-({4-[4-Chloro-1-(cyclopropylmethyl)-1H-benzotriazol-5-yl]cyclohex-3-en-1-yl}methyl)-3-methylimidazolidine-2,4-dione]: 17 nM; `CN1CC(c2ccc3c(nnn3CC(C)(C)C)c2Br)=CCC1CO` (centres unmarked) [Example 9, {5-[4-Bromo-1-(2,2-dimethylpropyl)-1H-benzotriazol-5-yl]-1-methyl-1,2,3,6-tetrahydropyridin-2-yl}methanol]: 1560 nM.

As to `N#CC1CC=C(c2ccc3c(nnn3CC3CC3)c2Cl)CC1` (centres unmarked) [Example 6, 4-[4-chloro-1-(cyclopropylmethyl)-1H-benzotriazol-5-yl]cyclohex-3-ene-1-carbonitrile], the EC50 is 701 nM. The result for `Clc1c(C2=CCCCC2)ccc2c1nnn2CC1CC1` [Example 4, 4-chloro-5-cyclohex-1-en-1-yl-1-(cyclopropylmethyl)-1H-benzotriazole] reads 947 nM; that for `COC(=O)C1CC=C(c2ccc3c(nnn3CC3CC3)c2Cl)CC1` (centres unmarked) [Example 1, Methyl 4-[4-chloro-1-(cyclopropylmethyl)-1H-benzotriazol-5-yl]cyclohex-3-ene-1-carboxylate], 373 nM.

Regarding `OCC1CC=C(c2ccc3c(nnn3CC3CC3)c2Br)CC1` (centres unmarked) [Example 10, {4-[4-Bromo-1-(cyclopropylmethyl)-1H-benzotriazol-5-yl]cyclohex-3-en-1-yl}methanol], the EC50 amounted to 52 nM. Next, `COC(=O)C1CC=C(c2ccc3c(nnn3CC3CC3)c2C(F)(F)F)CC1` (centres unmarked) [Example 7, Methyl 4-[1-(cyclopropylmethyl)-4-(trifluoromethyl)-1H-benzotriazol-5-yl]cyclohex-3-ene-1-carboxylate]: 31 nM; `CN1C(=O)CN(CC2CC=C(c3ccc4c(nnn4CC4CC4)c3Br)CC2)C1=O` (centres unmarked) [Example 11, 1-({4-[4-Bromo-1-(cyclopropylmethyl)-1H-benzotriazol-5-yl]cyclohex-3-en-1-yl}methyl)-3-methylimidazolidine-2,4-dione]: 9.2 nM; `CN1C(=O)CN(CC2CC=C(c3ccc4c(nnn4CC4CC4)c3C(F)(F)F)CC2)C1=O` (centres unmarked) [Example 8, 1-({4-[1-(Cyclopropylmethyl)-4-(trifluoromethyl)-1H-benzotriazol-5-yl]cyclohex-3-en-1-yl}methyl)-3-methylimidazolidine-2,4-dione]: 15 nM. The result for `OCC1CC=C(c2ccc3c(nnn3CC3CC3)c2Cl)CC1` (centres unmarked) [Example 2, {4-[4-Chloro-1-(cyclopropylmethyl)-1H-benzotriazol-5-yl]cyclohex-3-en-1-yl}methanol] reads 77 nM.
